Results taken from US12044680B2, “Peptide exchange system and method” (priority 2016, dated 2024).
Where two headings read alike, the source gives them in different places. Ends that are not written are not given here. * marks the point of attachment. DNP = dinitrophenol (DNP) tag on lysine, O=[N+]([O-])c1ccc(*)c([N+](=O)[O-])c1; Dnp = O=[N+]([O-])c1ccc(*)c([N+](=O)[O-])c1

What was measured:
[1] = biological target: T1, HLA-A*02:01 tetramers with exiting peptide ILKEKK(DNP)VHGV (Homo sapiens, UniProt P04439, D140Y/D185E/D98H/E176V/E277Q/G131W/G231S/I119V/I121R/I166T/I218V/L300P/L318F/N151K/N90K/P208A/P217A/Q86G/Q94H/R138H/R169H/T345S); experiment: HLA-A*02:01 peptide exchange quantitation; assay type: binding; details: entering peptide 20 μM final, 4 hours; HLA-A*02:01 tetramer
T1 construct: prepared as known in the art, for instance by deletion of the transmembrane domain and the cytoplasmic domain; made in house
Procedure: Peptide Exchange Procedure: 50 μL of the tetramer solution is combined with 1 μL of peptide exchange factor, such as glycyl methionine, (resulting in a final peptide exchange factor concentration of 5-20 mM) and 1 μL of the peptide solution and the resulting solution was mixed, then incubated at room temperature for four hours.
Sandwich magnetic bead immunoassay: 20 μL capture beads is pipetted into wells 1-4 on a 96-well plate. 5 μL assay buffer is pipetted into well 2. 5 μL of exchanged tetramer is pipetted into well 4. Additional exchanged tetramers may be pipetted into wells 5 and up. The plate is protected from light and shaken for 45 min at 550 rpms/min. 150 μL of assay buffer is dispensed into each well. The plate is placed on a plate magnet and the beads are permitted to sediment for at least 5 minutes.
Separately, a preparation of the FITC-conjugated anti-tag antibody is prepared at 10 μg/mL. 25 μL of the FITC-conjugated anti-tag antibody is pipetted into each well except well 1, and the plate is again protected from light and shaken for 45 min at 550 rpms/min.
150 μL of assay buffer is dispensed into each well, and the plate is placed on a plate magnet. The beads are permitted to sediment for at least 5 minutes. The beads are resuspended in sheath fluid and transferred to labeled flow cytometer tubes (referred to herein by the number of the well they are drawn from), which are then analyzed on a flow cytometer.
Flow Cytometry Analysis: Unused magnetic beads are used to set FSC (forward-scattered light) and SSC (side-scattered light) voltages and gains such that a live gate selects single beads and excludes doublets and larger clumps, see FIG. 1A. […] Tube 1 is run to perform compensation in FL1 in order to eliminate fluorochrome interference in the FITC channel, see FIG. 1C. The FL1 MFI is set to the first log decade, close to that obtained with beads only. Tube 2, which contains beads that have captured no tetramer and therefore no tagged peptide, is run to calibrate the level for 0% tagged peptide, i.e. 100% peptide exchange (see FIG. 1D). In the exemplary data provided here, the MFI is 0.287. Tube 3, which contains a solution where all tetramers display the original tagged peptide, is run to calibrate the level for 100% tagged peptide, i.e. 0% peptide exchange (see FIG. 1E). In the exemplary data provided here, the MFI is 20.4. Tubes 4 and up are run to evaluate the samples. Peptide exchanged tetramers will display various quantities of tagged peptides, depending on their binding affinities to HLA-A*02:01 molecules. Therefore, the FL1 MFI measured will be intermediary between MFI values obtained with tubes 2 and 3. See FIG. 1F, where in the exemplary data provided here, the MFI is 9.37.
(§1) Peptide exchange data were obtained after incubating peptides (20 μM final) with tetramer for 4 hours, then followed by capture with anti HLA-ABC beads and staining with an anti-DNP FITC antibody.

[2] = biological target: T2, HLA-A*24:02 tetramers with exiting peptide TFQRK(DNP)PAAF (Homo sapiens, UniProt P04439, D101N/D140Y/D185E/E176V/E190D/F33S/G103R/G107R/I119L/I121M/I306V/K335N/L105A/L180Q/L300P/N151K/N90K/Q86E/Q94H/R106L/R138H/R89G/T104I/T345S/V100E/W191G/Y123F); experiment: HLA-A*24:02 peptide exchange quantitation; assay type: binding; details: competing peptide 20 μM final, 4 hours; HLA-A*24:02 tetramer
T2 construct: prepared as known in the art, for instance by deletion of the transmembrane domain and the cytoplasmic domain; made in house
Procedure: as §1

HLA-A*02:01 tetramers = biological target: T3, HLA-A*02:01 tetramers (Homo sapiens, UniProt P04439, D140Y/D185E/D98H/E176V/E277Q/G131W/G231S/I119V/I121R/I166T/I218V/L300P/L318F/N151K/N90K/P208A/P217A/Q86G/Q94H/R138H/R169H/T345S); experiment: Comparison of exiting peptides: peptide exchange on HLA-A*02:01 tetramers against […]; assay type: binding; details: GM 10 mM; YLLEFTPPV at 10 and 1 μg/mL; compared with ILKEK(DNP)VHGV
T3 construct: prepared as known in the art, for instance by deletion of the transmembrane domain and the cytoplasmic domain; made in house
Procedure: Peptide exchange was performed using two HLA-A*02:01 tetramers at 280 μg/mL made with peptides ILKEKK(DNP)VHGV (SEQ ID NO: 3) and ILKEK(DNP)VHGV (SEQ ID NO: 4). […] Tetramers were captured with beads conjugated with an anti HLA-ABC specific antibody at 10 μg/mL.

[3] = biological target: T4, HLA-A*02:01 Tetramers containing exiting peptide ILKEKK(DNP)VHGV (Homo sapiens, UniProt P04439, D140Y/D185E/D98H/E176V/E277Q/G131W/G231S/I119V/I121R/I166T/I218V/L300P/L318F/N151K/N90K/P208A/P217A/Q86G/Q94H/R138H/R169H/T345S); experiment: Quantified peptide exchange assay of vaccine and individual peptide; assay type: binding
T4 construct: prepared as known in the art, for instance by deletion of the transmembrane domain and the cytoplasmic domain; made in house
Procedure: Quantified Peptide Exchange Assay: HLA-A*02:01 Tetramers were prepared containing exiting peptide ILKEKK(DNP)VHGV (SEQ ID NO: 3). Peptide exchange was performed against (a) the peptide prepared individually in a buffered solution or (b) in the DPX-Survivac vaccine prepared in an aqueous formulation. HLA-A*02:01 tetramer, and peptide exchange factor glycylmethionine were mixed with each peptide to be tested. Peptide exchange was then quantified by the flow cytometric sandwich immunoassay using magnetic capture beads.
Comparison of Peptide Exchange Assay to T2 HLA-A2 Shift assay: The peptide exchange assay described herein and the T2 HLA-A2 shift assay were conducted on various amounts of peptide per reaction. The results are presented in FIGS. 12D (T2 HLA-A2 shift assay) and 12E (peptide exchange assay), with the three independent repeats shown in diamonds, squares, and triangles. The T2 Shift assay provides a high degree of linearity when applied to the samples containing 10 μg/reaction to 110 μg/reaction of SurA2.M peptide.

H-2 Kb tetramers = biological target: T5, H-2 Kb tetramers (Mus musculus, UniProt P01901); experiment: Selection of exiting peptide: peptide exchange on H-2 Kb tetramers with competing peptides; assay type: binding, murine; details: H-2 Kb tetramers 280 μg/mL; competing peptides 10 μg/mL
T5 construct: prepared as known in the art, for instance by deletion of the transmembrane domain and the cytoplasmic domain; made in house
T5 sequence (P01901 22-305 limits assumed): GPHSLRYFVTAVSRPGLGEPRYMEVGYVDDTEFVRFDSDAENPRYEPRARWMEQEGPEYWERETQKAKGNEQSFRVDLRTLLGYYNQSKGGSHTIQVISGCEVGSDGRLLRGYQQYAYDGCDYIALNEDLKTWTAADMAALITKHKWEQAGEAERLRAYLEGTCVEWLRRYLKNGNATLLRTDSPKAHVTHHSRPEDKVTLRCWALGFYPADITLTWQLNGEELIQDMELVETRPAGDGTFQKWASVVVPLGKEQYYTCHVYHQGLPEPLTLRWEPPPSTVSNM
Procedure: Peptide exchange was performed using two H-2 Kb tetramers at 280 jig/mL that were made with peptides MTYK(DNP)FPVT (SEQ ID NO: 1) and YTVK(DNP)FALV (SEQ ID NO: 2). Exchange was performed in the presence of competing peptides at 10 μg/mL. Tetramers were captured with beads conjugated with an anti H-2 Kb specific antibody. Detection was performed with a FITC-conjugated anti-DNP antibody at 10 μg/mL. The results are depicted in FIG. 6, where the exiting peptides are labeled as follows: […]

[4] = biological target: H-2 Kb tetramers (PE, APC or BV421) with exiting peptide TFQRK(DNP)PAAF (Mus musculus, UniProt P01901); details: glycyl-methionine, 4 hours room temperature; for Exchange rate, APC: H-2 Kb APC tetramer; for Exchange rate, BV421: H-2 Kb BV421 tetramer; for Exchange rate, PE: H-2 Kb PE tetramer
Procedure: The mixtures were incubated for 4 hours at room temperature, protected from light.
20 μL of magnetic capture beads were added to wells of a v-bottom 96-well plate for each tested peptide plus wells for control samples. Each test well received 5 μL from the peptide exchange samples. The plate was shaken for 45 minutes at 550 rpm, room temperature, protected from light. After bead rinse, wells received 25 μL of 1× exiting peptide antibody. The plate was shaken for 45 minutes at 550 rpm, room temperature, protected from light. Beads were rinsed, resuspended in 1× assay buffer and run on a FC500 Flow Cytometer. Single beads were gated on FSC vs. SSC and MFI were measured on 500 events per test. Peptide exchange rate was calculated using a calibration curve generated with MFI values from controls.

Substance: ALALEVGEL
- % peptide exchange [1]: 85.1%

Substance: ALLAVGATK
- % peptide exchange [1]: 25.7%

Substance: AMAPRTLLL
- % peptide exchange [2]: 81.62%

Substance: ATDALMTGY
- % peptide exchange [2]: 7.74%

Substance: ATVQGQNLK
- % peptide exchange [1]: 27.9%

Substance: AVLDGLLSL
- % peptide exchange [1]: 90.7%

Substance: CINGVCWTV
- % peptide exchange [1]: 85.3%

Substance: CSLWNGPHL
- % peptide exchange [1]: 55.2%

Substance: EYILSLEEL
- % peptide exchange [1]: 24.2%

Substance: FLSELTQQL
- % peptide exchange [2]: 23.65%

Substance: FLYDDNQRV
- % peptide exchange [1]: 91.2%

Substance: GLADQLIHL
- % peptide exchange [1]: 91.4%
- % peptide exchange [2]: 0.86%

Substance: GLAVVTHGL
- % peptide exchange [1]: 91.0%

Substance: GYSLKLSKL
- % peptide exchange [2]: 37.93%

Substance: ILKEKK(Dnp)VHGV
- Performance of the exiting peptide in peptide exchange (HLA-A*02:01 tetramers): performs better in peptide exchange

Substance: IMQIMPYGC
- % peptide exchange [1]: 59.9%

Substance: IMQLMPFGC
- % peptide exchange [1]: 40.9%

Substance: IRLRPGGKK
- % peptide exchange [1]: 25.0%

Substance: IYSTVASSL
- % peptide exchange [2]: 100.98%

Substance: LMLGEFLKL [SurA2.M]
- Peptide exchange rate, individually in buffered solution versus in the vaccine ([3]; three independent repeats, Student's t-test at p<0.05): not statistically distinguishable
- Upper limit of quantification of the peptide exchange assay ([3]; various amounts of peptide per reaction): below 0.2 μg/reaction

Substance: LNMADKKET
- % peptide exchange [2]: 10.32%

Substance: LTLGEFLKL
- % peptide exchange [1]: 43.6%

Substance: MTYK(DNP)FPVT
- Exchangeability of tetramers built with the exiting peptide (H-2 Kb tetramers): allowed exchange with a wide range of peptides

Substance: RAHYNIVTF
- % peptide exchange [2]: 85.58%

Substance: RIKDFLRNL
- % peptide exchange [1]: 34.0%

Substance: RVRAYTYSK
- % peptide exchange [2]: 10.32%

Substance: RYMRWTYRF
- % peptide exchange [2]: 101.29%

Substance: SIYRYYGL [Reference Peptide]
- Exchange rate, APC ([4]; Reference Peptide 2 μM): 97.08
- Exchange rate, APC ([4]; Reference Peptide 20 μM): 99.13
- Exchange rate, BV421 ([4]; Reference Peptide 2 μM): 90.56
- Exchange rate, BV421 ([4]; Reference Peptide 20 μM): 97.34
- Exchange rate, PE ([4]; Reference Peptide 2 μM): 92.72
- Exchange rate, PE ([4]; Reference Peptide 20 μM): 100

Substance: SLPPPGTRV
- % peptide exchange [1]: 86.6%

Substance: SYVPSAEQI
- % peptide exchange [1]: 25.0%

Substance: WMHHNMDLI
- % peptide exchange [1]: 89.2%

Substance: WMHKVPASL
- % peptide exchange [1]: 87.9%

Substance: YLLEFTPPV
- % peptide exchange [1]: 91.9%

Substance: YTVK(DNP)FALV
- Exchangeability of tetramers built with the exiting peptide (H-2 Kb tetramers): not possible
